# Results as given in patent US8628781B2, “Prevention and treatment of cast nephropathy” (The UAB Research Foundation, priority 2010, dated 2014).
# Entries after “also recorded” stand apart in the source; their conditions may differ. Bridges are numbered along the chain shown (N, C = ends). Where no end group is shown, it is not given here.
# Tests used:
# Tamm-Horsfall protein [1] = assay: Yeast two-hybrid assay of CDR3 inserts ligated between Framework 2 and Framework 3 of LKPBLL53; format: binding, human; conditions: FIG. 6, N=7
# Text: Addition of the framework regions permits each CDR3, which was ligated into the construct using Sma1 and BamH1, to achieve proper folding into a loop structure. […] The CDR3 domain of ITPBLL2 differed from the CDR3 domain of ITPBLL1 (SEQ ID NO:28) by only two amino acids (underlined), which were sufficient to inhibit formation of a loop structure, and, thus, binding to the Tamm-Horsfall protein. […] N=6 experiments for each group.
# Among those CDR3 domains that were predicted to form a loop, affinity for the Tamm-Horsfall protein was strong and correlated with that observed using the intact VL from the parent light chain.
# (§1) Mutation of the CDR3 sequence to disrupt the loop structure by substituting amino acid residues with phenyalanine confirmed that the secondary structure was an important determinant of binding (FIG. 6). The inhibitory capability of cyclized experimental (CLSADSSGSYLYVC (SEQ ID NO:32)) and control (CLSAFSFGFYLYVC (SEQ ID NO:33)) peptides were then compared in a competitive ELISA assay.
# Tamm-Horsfall protein [2] = molecular target: T1, Tamm-Horsfall protein (Homo sapiens, UniProt P07911); assay: Competitive ELISA: peptide inhibition of Tamm-Horsfall protein binding to immunoglobulin light chains bound in microtiter wells; conditions: for inhibition of binding between Tamm-Horsfall protein and human light chains (in words): six human light chains (λ2, 3 and 5 and κ3, 6, and 7), FIG. 7; for inhibition of binding of Tamm-Horsfall protein to immunoglobulin light chain (in words): uncyclized and cyclized peptide, FIG. 5
# Text: Peptides known to react with the Tamm-Horsfall protein in the yeast two-hybrid assay were synthesized, cyclized, and used as inhibitors in a competitive ELISA experiment. The peptides were cyclized by adding cysteine residues to the amino and carboxyl-terminal portions of the peptides and generating an intramolecular disulfide bridge (FIG. 4). Cyclization facilitates formation of the loop structure in solution. Both the linear and cyclized peptides inhibited the binding of the Tamm-Horsfall protein to the immunoglobulin light chains bound in the wells of the microtiter plate, but the efficiency of inhibition was increased by cyclization of the peptide inhibitor.
# as §1
# [3] = system: rat model of cast nephropathy; assay: Rat model of cast nephropathy by administration of human kappa and lambda light chains; format: in vivo; conditions: rats given human kappa and lambda light chains
# Procedure: The competitor peptides, SEQ ID NO:1 and SEQ ID NO:2, have been used in a rat model of cast nephropathy, which employed administration of human kappa and lambda light chains. […] Rats were injected intraperitoneally with 40 mg of cyclized competitor peptide, SEQ ID NO:2 (pep), or vehicle alone (veh) just prior to intraperitoneal injection of 100 mg of human kappa or lambda light chain purified from patients who had multiple myeloma and kidney damage. On the following day, rats also received an additional injection of competitor peptides, SEQ ID NO:1 (20 mg) or vehicle. Rats were examined three days after the initial injection.
# Tamm-Horsfall protein [4] = molecular target: T1, Tamm-Horsfall protein; assay: Competition studies of synthetic CDR3 peptide with light chains from myeloma patients for binding to Tamm-Horsfall protein; conditions: six different immunoglobulin light chains from patients with myeloma and cast nephropathy
# Text: The yeast two-hybrid system was employed to determine the site on the immunoglobulin light chain that interacted with the Tamm-Horsfall protein. Using 248- and 787-base pair fragments of the Tamm-Horsfall protein, which contained the previously described immunoglobulin light chain-binding domain, the interaction with unique immunoglobulin light chains that represented a variety of the known isotypes of κ and λ immunoglobulin light chains was examined. […] While this was considered an advance, this peptide was not considered to bind avidly enough to the Tamm-Horsfall protein to serve as an effective inhibitor in vivo.
sequence,measurement,setting,value
LSAFSSGSYLYV [ITPBLL86 CDR3 mutated with one phenylalanine],interaction of wildtype and phenylalanine-mutated CDR3 sequence with Tamm-Horsfall protein (in words),Tamm-Horsfall protein [1],none of the mutated sequences interacted
LSADSSGSYLYV,interaction of wildtype and phenylalanine-mutated CDR3 sequence with Tamm-Horsfall protein (in words),Tamm-Horsfall protein [1],interacted strongly
"CLSAFSFGFYLYVC (disulfide 1-14 (inferred)) [cyclized control peptide, reference compound]",inhibition of binding between Tamm-Horsfall protein and human light chains (in words),Tamm-Horsfall protein [2],did not effectively inhibit binding
"QSYDNTLSGSYVF [peptide 1, QSYDNTLSGSYVF]","effect on cast formation, acute renal failure and renal function (in words)",[3],prevented cast formation and acute renal failure and improved renal function
same,inhibition of binding of Tamm-Horsfall protein to immunoglobulin light chain (in words),Tamm-Horsfall protein [2],inhibit binding
LSAFSFGFYLYV [ITPBLL86 CDR3 mutated with three phenylalanines],interaction of wildtype and phenylalanine-mutated CDR3 sequence with Tamm-Horsfall protein (in words),Tamm-Horsfall protein [1],none of the mutated sequences interacted
LSAFSFGSYLYV [ITPBLL86 CDR3 mutated with two phenylalanines],interaction of wildtype and phenylalanine-mutated CDR3 sequence with Tamm-Horsfall protein (in words),Tamm-Horsfall protein [1],none of the mutated sequences interacted
MQGTHWPPLT [synthetic peptide identical to the CDR3 region of SSH23],competition with light chains for binding to Tamm-Horsfall protein (in words),Tamm-Horsfall protein [4],effectively competed
CLSADSSGSYLYVC (disulfide 1-14 (inferred)) [cyclized experimental peptide],inhibition of binding between Tamm-Horsfall protein and human light chains (in words),Tamm-Horsfall protein [2],completely prevented the binding; also recorded: very efficient inhibitor
"LSADSSGSYLYVF [peptide 2, LSADSSGSYLYVF]","effect on cast formation, acute renal failure and renal function (in words)",[3],prevented cast formation and acute renal failure and improved renal function
same,inhibition of binding of Tamm-Horsfall protein to immunoglobulin light chain (in words),Tamm-Horsfall protein [2],inhibit binding
